Results on 13 molecules are retold here after patent US8673950B2, “Dihydrooxazol-2-amine derivatives” (Hoffmann-LaRoche Inc., priority 2010, dated 2014).

Assay [1] has as its target mouse TAAR1 (Mus musculus (Mouse), UniProt Q923Y8). The assay is described as follows: Radioligand binding assay on mouse TAAR1. Conditions: mouse TAAR1, membranes of stably transfected HEK-293 cells; first value of cell mouse/rat. The protocol:
(§1) Construction of TAAR Expression Plasmids and Stably Transfected Cell Lines
(§2) For the construction of expression plasmids the coding sequences of human, rat and mouse TAAR 1 were amplified from genomic DNA essentially as described by Lindemann et al.. The Expand High Fidelity PCR System (Roche Diagnostics) was used with 1.5 mM Mg^2+ and purified PCR products were cloned into pCR2.1-TOPO cloning vector (Invitrogen) following the instructions of the manufacturer. PCR products were subcloned into the pIRESneo2 vector (BD Clontech, Palo Alto, Calif.), and expression vectors were sequence verified before introduction in cell lines.
(§3) HEK293 cells (ATCC # CRL-1573) were cultured essentially as described by Lindemann et al. (2005). For the generation of stably transfected cell lines HEK293 cells were transfected with the pIRESneo2 expression plasmids containing the TAAR coding sequences (described above) with Lipofectamine 2000 (Invitrogen) according to the instructions of the manufacturer, and 24 hrs post transfection the culture medium was supplemented with 1 mg/ml G418 (Sigma, Buchs, Switzerland). After a culture period of about 10 d clones were isolated, expanded and tested for responsiveness to trace amines (all compounds purchased from Sigma) with the cAMP Biotrak Enzyme immunoassay (EIA) System (Amersham) following the non-acetylation EIA procedure provided by the manufacturer.
Radioligand Binding Assay on Mouse TAAR1
(§4) Membrane Preparation and Radioligand Binding.
(§5) HEK-293 cells stably expressing mouse TAAR1 were maintained at 37° C. and 5% CO2 in DMEM high glucose medium, containing fetal calf serum (10%, heat inactivated for 30 min at 56° C.), penicillin/streptomycin (1%), and 375 μg/ml geneticin (Gibco). Cells were released from culture flasks using trypsin/EDTA, harvested, washed twice with ice-cold PBS (without Ca^2+ and Mg^2+), pelleted at 1'000 rpm for 5 min at 4° C., frozen and stored at −80° C. Frozen pellets were suspended in 20 ml HEPES-NaOH (20 mM, pH 7.4) containing 10 mM EDTA and homogenized with a Polytron (PT 6000, Kinematica) at 14'000 rpm for 20 s. The homogenate was centrifuged at 48'000×g for 30 min at 4° C. Subsequently, the supernatant was removed and discarded, and the pellet resuspended in 20 ml HEPES-NaOH (20 mM, pH 7.4) containing 0.1 mM EDTA using the Polytron (20 s at 14'000 rpm). This procedure was repeated and the final pellet resuspended in HEPES-NaOH containing 0.1 mM EDTA and homogenized using the Polytron. Typically, aliquots of 2 ml membrane portions were stored at −80° C. With each new membrane batch the dissociation constant (Kd) was determined via a saturation curve. The TAAR1 radioligand ^3[H]-(S)-4-[(ethyl-phenyl-amino)-methyl]-4,5-dihydro-oxazol-2-ylamine (described in WO 2008/098857) was used at a concentration equal to the calculated Kd value, that was usually around 0.7 nM, resulting in the binding of approximately 0.5% of the radioligand and a specific binding representing approximately 70% of the total binding. Nonspecific binding was defined as the amount of ^3[H]-(S)-4-[(ethyl-phenyl-amino)-methyl]-4,5-dihydro-oxazol-2-ylamine bound in the presence of 10 μM unlabeled ligand. All compounds were tested at a broad range of concentrations (10 μM to 10 μM) in duplicates. […] The 96 deep well plates were incubated for 1 hr at 4° C. Incubations were terminated by rapid filtration through Unifilter-96 plates (Packard Instrument Company) and glass filters GF/C (Perkin Elmer) presoaked for 1 hr in polyethylenimine (0.3%) and washed 3 times with 1 ml of cold binding buffer. After addition of 45 μl of Microscint 40 (PerkinElmer) the Unifilter-96 plate was sealed and after 1 hr the radioactivity counted using a TopCount Microplate Scintillation Counter (Packard Instrument Company).

Assay [2] has as its target rat TAAR1 (Rattus norvegicus (Rat), UniProt Q923Y9). The assay is described as follows: Radioligand binding assay on rat TAAR1. Conditions: rat TAAR1, membranes of stably transfected HEK-293 cells; second value of cell mouse/rat. The method, then:
as §1, §2, §3
Radioligand Binding Assay on Rat TAAR1
as §4
as §5, with “expressing rat” for “expressing mouse”, “curve. […]” for “curve. The TAAR1 radioligand ^3[H]-(S)-4-[(ethyl-phenyl-amino)-methyl]-4,5-dihydro-oxazol-2-ylamine (described in WO 2008/098857) was used at a concentration equal to the calculated Kd value, that was usually around 0.7 nM, resulting in the binding of approximately 0.5% of the radioligand and a specific binding representing approximately 70% of the total binding.”, “(10 pM” for “(10 μM”

Structures are written as SMILES.

Chain of rat TAAR1 (Q923Y9 whole entry): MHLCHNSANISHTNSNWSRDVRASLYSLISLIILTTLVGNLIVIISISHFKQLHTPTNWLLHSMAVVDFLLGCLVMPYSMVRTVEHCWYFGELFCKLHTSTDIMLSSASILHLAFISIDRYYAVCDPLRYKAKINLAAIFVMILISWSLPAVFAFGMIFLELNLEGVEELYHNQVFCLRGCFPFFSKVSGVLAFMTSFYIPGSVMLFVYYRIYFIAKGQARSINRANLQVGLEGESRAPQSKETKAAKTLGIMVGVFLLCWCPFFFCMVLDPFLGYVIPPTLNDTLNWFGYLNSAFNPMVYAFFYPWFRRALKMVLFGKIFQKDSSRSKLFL
Chain of mouse TAAR1 (Q923Y8 whole entry): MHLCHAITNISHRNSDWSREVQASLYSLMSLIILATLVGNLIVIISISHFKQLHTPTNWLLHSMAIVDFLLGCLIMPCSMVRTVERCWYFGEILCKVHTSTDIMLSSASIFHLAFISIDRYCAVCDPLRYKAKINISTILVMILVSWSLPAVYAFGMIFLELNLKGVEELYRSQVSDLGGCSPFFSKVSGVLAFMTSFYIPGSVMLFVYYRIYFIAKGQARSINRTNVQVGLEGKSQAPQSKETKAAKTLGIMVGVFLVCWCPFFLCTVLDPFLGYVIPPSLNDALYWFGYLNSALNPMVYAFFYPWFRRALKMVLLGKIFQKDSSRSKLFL

In the case of `Cc1cncc(Nc2ccc(CC[C@H]3COC(N)=N3)cc2)n1` [Example 43, {4-[2-((S)-2-Amino-4,5-dihydro-oxazol-4-yl)-ethyl]-phenyl}-(6-methyl-pyrazin-2-yl)-amine], the Ki amounted to 0.107 µM in assay [1] and 0.0046 µM in assay [2].
`COc1nc(Cl)cc(Nc2ccc(CC[C@H]3COC(N)=N3)cc2)n1` [Example 44, {4-[2-((S)-2-Amino-4,5-dihydro-oxazol-4-yl)-ethyl]-phenyl}-(6-chloro-2-methoxy-pyrimidin-4-yl)-amine]: the Ki in assay [1] came to 0.001 µM; in assay [2], 0.0011 µM.
As to `CSc1ccnc(Nc2ccc(CC[C@H]3COC(N)=N3)cc2)n1` [Example 45, {4-[2-((S)-2-Amino-4,5-dihydro-oxazol-4-yl)-ethyl]-phenyl}-(4-methylsulfanyl-pyrimidin-2-yl)-amine], the Ki in assay [1] was determined as 0.0077 µM; in assay [2] it was 0.0013 µM.
For `Cc1cnc(Nc2ccc(CC[C@H]3COC(N)=N3)cc2)nc1` [Example 46, {4-[2-((S)-2-Amino-4,5-dihydro-oxazol-4-yl)-ethyl]-phenyl}-(5-methyl-pyrimidin-2-yl)-amine], in that order: 0.0105 µM and 0.0012 µM.
For `CC(=O)c1cnc(Nc2ccc(CC[C@H]3COC(N)=N3)cc2)nc1` [Example 47, 1-(2-{4-[2-((S)-2-Amino-4,5-dihydro-oxazol-4-yl)-ethyl]phenylamino}-pyrimidin-5-yl)-ethanone], in that order: 0.0192 µM and 0.0024 µM.
Regarding `Cc1ccnc(Nc2ccc(CC[C@H]3COC(N)=N3)cc2)n1` [Example 48, {4-[2-((S)-2-Amino-4,5-dihydro-oxazol-4-yl)-ethyl]-phenyl}-(4-methyl-pyrimidin-2-yl)-amine], the figures for the Ki in assay [1] and in assay [2] were 0.0166 µM and 0.0012 µM, respectively.
The corresponding values for `CCCc1cnc(Nc2ccc(CC[C@H]3COC(N)=N3)cc2)nc1` [Example 49, {4-[2-((8)-2-Amino-4,5-dihydro-oxazol-4-yl)-ethyl]-phenyl}-(5-propyl-pyrimidin-2-yl)-amine] are 0.0007 µM and 0.0006 µM.
The corresponding values for `NC1=N[C@@H](CCc2ccc(Nc3cnc(Cl)nc3)cc2)CO1` [Example 50, {4-[2-((S)-2-Amino-4,5-dihydro-oxazol-4-yl)-ethyl]-phenyl}-(2-chloro-pyrimidin-5-yl)-amine] are 0.0218 µM and 0.0006 µM.
In the case of `NC1=N[C@@H](CCc2ccc(Nc3ncc(Br)cn3)cc2)CO1` [Example 51, {4-[2-((S)-2-Amino-4,5-dihydro-oxazol-4-yl)-ethyl]-phenyl}-(5-bromo-pyrimidin-2-yl)-amine], the results for the Ki in assay [1] and in assay [2] were 0.0006 µM and 0.0004 µM, respectively.
The corresponding values for `C[C@@H]1OC(N)=N[C@H]1CCc1ccc(Nc2ncc(Cl)cn2)cc1` [Example 52, {4-[2-((4S,5S)-2-Amino-5-methyl-4,5-dihydro-oxazol-4-yl)-ethyl]-phenyl}-(5-chloro-pyrimidin-2-yl)-amine] are 0.0046 µM and 0.0006 µM.
Regarding `CCC(=O)c1cnc(Nc2ccc(CC[C@H]3COC(N)=N3)cc2)nc1` [Example 53, (S)-1-(2-(4-(2-(2-Amino-4,5-dihydrooxazol-4-yl)ethyl)phenylamino)pyrimidin-5-yl)propan-1-one], the Ki in assay [1] worked out at 0.113 µM; in assay [2], 0.0265 µM.
Regarding `NC1=N[C@@H](CCc2ccc(Nc3ncc(C4CC4)cn3)cc2)CO1` [Example 54, {4-[2-((S)-2-Amino-4,5-dihydro-oxazol-4-yl)-ethyl]-phenyl}-(5-cyclopropyl-pyrimidin-2-yl)-amine], the values for the Ki in assay [1] and in assay [2] were 0.0003 µM and 0.0004 µM, respectively.
For `CCOc1cnc(Nc2ccc(CC[C@H]3COC(N)=N3)cc2)nc1` [Example 55, {4-[2-((S)-2-Amino-4,5-dihydro-oxazol-4-yl)-ethyl]-phenyl}-(5-ethoxy-pyrimidin-2-yl)-amine], in that order: 0.005 µM and 0.0083 µM.

As usually defined, the Ki is a measure of affinity in units of concentration, obtained from inhibition or displacement. A high value points to weaker binding.
